# In patent US11998539B2, “Substituted aminoquinolones as DGKalpha inhibitors for immune activation” (Bayer Aktiengesellschaft, priority 2019, dated 2024):
# Molecular target: DGKα (Homo sapiens (Human), UniProt P23743)
# Test: Human DGKα kinase activity inhibition assay (ADP-Glo)
# Type: biochemical
# Details: recombinant full-length human DGKα, 55 μM ATP, 7 μM 1,2-dioleoyl-sn-glycerol, read-out: IC50 values of examples in in vitro human DGKa kinase activity inhibition assays
# Method: Human DGKα Kinase Activity Inhibition Assay
# Human DGKα inhibitory activity of compounds of the present invention was quantified employing the human DGKα kinase activity assay as described in the following paragraphs. In essence, the enzyme activity was measured by quantification of the adenosine-di-phosphate (ADP) generated as a co-product of the enzyme reaction via the “ADP-Glo™ Kinase Assay” kit from the company Promega. This detection system works as follows: In a first step the ATP not consumed in the kinase reaction is quantitatively converted to cAMP employing an adenylate cyclase (“ADP-Glo-reagent”), then the adenylate cyclase is stopped and the ADP generated in the kinase reaction converted to ATP, which subsequently generates in a luciferase-based reaction a glow-luminescence signal (“Kinase Detection Reagent”).
# C-terminally FLAG-tagged, recombinant full-length human DGKα (expressed in baculovirus infected insect cells, purified using anti-Flag pulldown and size exclusion chromatography as described below, DGKa_hu_1) was used as enzyme. As substrate for the kinase 1,2-dioleoyl-sn-glycerol, reconstituted in octyl-β-D-glucopyranoside micelles, was used. […] Then 35 volumes of 50 mM MOPS buffer (pH 7.4) were added to yield a solution of 0.28 mM 1,2 dioleoyl-sn-glycerol and 200 mM […], which was aliquoted, flash-frozen in liquid nitrogen, and stored at −20° C. until use.
# For the assay 50 nl of a 100-fold concentrated solution of the test compound in dimethyl sulfoxide (DMSO, Sigma) was pipetted into either a white 1536-well or a white low-volume 384-well microtiter plate (both Greiner Bio-One, Frickenhausen, Germany).
# Chain of DGKα (P23743 other isoform, or with tags, fused parts or gaps): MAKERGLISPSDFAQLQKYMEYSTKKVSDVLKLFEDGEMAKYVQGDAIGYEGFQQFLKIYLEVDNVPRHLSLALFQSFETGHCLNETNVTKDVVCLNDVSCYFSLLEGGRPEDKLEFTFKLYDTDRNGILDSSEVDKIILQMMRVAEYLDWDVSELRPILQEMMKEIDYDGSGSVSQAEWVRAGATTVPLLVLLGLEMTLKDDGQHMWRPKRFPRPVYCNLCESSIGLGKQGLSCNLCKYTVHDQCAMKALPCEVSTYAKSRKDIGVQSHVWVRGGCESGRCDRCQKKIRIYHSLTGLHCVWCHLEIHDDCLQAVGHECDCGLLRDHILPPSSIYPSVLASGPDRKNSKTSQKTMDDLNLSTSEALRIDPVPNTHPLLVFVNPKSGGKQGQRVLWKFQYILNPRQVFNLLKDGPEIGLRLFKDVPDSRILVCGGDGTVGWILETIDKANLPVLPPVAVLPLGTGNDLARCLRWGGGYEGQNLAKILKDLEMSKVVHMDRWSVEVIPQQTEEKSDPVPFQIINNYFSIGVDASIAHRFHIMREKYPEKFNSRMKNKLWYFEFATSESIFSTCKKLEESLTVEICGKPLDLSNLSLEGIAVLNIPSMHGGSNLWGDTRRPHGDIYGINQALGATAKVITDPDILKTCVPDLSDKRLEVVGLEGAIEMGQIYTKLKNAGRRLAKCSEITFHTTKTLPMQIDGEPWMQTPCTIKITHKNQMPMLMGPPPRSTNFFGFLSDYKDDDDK
row,SMILES,IC50 [nM]
1,"Cn1c(=O)c(C#N)c(N2CCC(c3nc4cc(C(F)(F)F)ccc4s3)CC2)c2ccccc21 [Example 23, 1-methyl-2-oxo-4-{4-[5-(trifluoromethyl)-1,3-benzothiazol-2-yl]piperidin-1-yl}-1,2-dihydroquinoline-3-carbonitrile]",12
2,"Cn1c(=O)c(C#N)c(N2CCC(C)(c3nc4cc(C(C)(C)C)ccc4o3)CC2)c2ccccc21 [Example 24, 4-[4-(5-tert-butyl-1,3-benzoxazol-2-yl)-4-methylpiperidin-1-yl]-1-methyl-2-oxo-1,2-dihydroquinoline-3-carbonitrile]",45
3,"Cn1c(=O)c(C#N)c(N2CCC(C)(c3nc4cc(S(C)(=O)=O)ccc4o3)CC2)c2ccccc21 [Example 25, 4-{4-[5-(methanesulfonyl)-1,3-benzoxazol-2-yl]-4-methylpiperidin-1-yl}-1-methyl-2-oxo-1,2-dihydroquinoline-3-carbonitrile]",168
4,"Cn1c(=O)c(C#N)c(N2CCC(c3nc4c(F)cccc4o3)CC2)c2ccccc21 [Example 26, 4-[4-(4-fluoro-1,3-benzoxazol-2-yl)piperidin-1-yl]-1-methyl-2-oxo-1,2-dihydroquinoline-3-carbonitrile]",10
5,"Cn1c(=O)c(C#N)c(N2CCC(c3nc4ccccc4o3)CC2)c2ccc(Br)cc21 [Example 27, 4-[4-(1,3-benzoxazol-2-yl)piperidin-1-yl]-7-bromo-1-methyl-2-oxo-1,2-dihydroquinoline-3-carbonitrile]",2
6,"Cn1c(=O)c(C#N)c(N2CCC(c3nc4ccc(Cl)cc4o3)CC2)c2ccc(Br)cc21 [Example 32, 7-bromo-4-[4-(6-chloro-1,3-benzoxazol-2-yl)piperidin-1-yl]-1-methyl-2-oxo-1,2-dihydroquinoline-3-carbonitrile]",6
7,"Cn1c(=O)c(C#N)c(N2CCC(c3nc4ccccc4s3)CC2)c2ccc(Br)cc21 [Example 33, 4-[4-(1,3-benzothiazol-2-yl)piperidin-1-yl]-7-bromo-1-methyl-2-oxo-1,2-dihydroquinoline-3-carbonitrile]",6.2
8,"Cn1c(=O)c(C#N)c(N2CCC(c3nc4ccccc4o3)CC2)c2ccc(N3CCCC3=O)cc21 [Example 35, 4-[4-(1,3-benzoxazol-2-yl)piperidin-1-yl]-1-methyl-2-oxo-7-(2-oxopyrrolidin-1-yl)-1,2-dihydroquinoline-3-carbonitrile]",7.8
9,"Cn1c(=O)c(C#N)c(N2CCC(c3nc4ccccc4s3)CC2)c2ccc(N3CCCC3=O)cc21 [Example 36, 4-[4-(1,3-benzothiazol-2-yl)piperidin-1-yl]-1-methyl-2-oxo-7-(2-oxopyrrolidin-1-yl)-1,2-dihydroquinoline-3-carbonitrile]",8.3
10,"Cn1c(=O)c(C#N)c(N2CCC(c3ccc(OCC(F)(F)F)cc3)CC2)c2ccccc21 [Example 37, 1-methyl-2-oxo-4-{4-[4-(2,2,2-trifluoroethoxy)phenyl]piperidin-1-yl}-1,2-dihydroquinoline-3-carbonitrile]",1.1
11,"CC(C)Oc1ccc(C2CCN(c3c(C#N)c(=O)n(C)c4ccccc34)CC2)cc1 [Example 38, 1-methyl-2-oxo-4-(4-{4-[(propan-2-yl)oxy]phenyl}piperidin-1-yl)-1,2-dihydroquinoline-3-carbonitrile]",1.5
12,"COc1ccc(C2CCN(c3c(C#N)c(=O)n(C)c4ccccc34)CC2)cc1 [Example 41, 4-[4-(4-methoxyphenyl)piperidin-1-yl]-1-methyl-2-oxo-1,2-dihydroquinoline-3-carbonitrile]",4.9
13,"CCCOc1ccc(C2CCN(c3c(C#N)c(=O)n(C)c4ccccc34)CC2)cc1 [Example 42, 1-methyl-2-oxo-4-[4-(4-propoxyphenyl)piperidin-1-yl]-1,2-dihydroquinoline-3-carbonitrile]",11
14,"Cn1c(=O)c(C#N)c(N2CCC(c3ccc(OC(F)(F)F)cc3)CC2)c2ccccc21 [Example 43, 1-methyl-2-oxo-4-{4-[4-(trifluoromethoxy)phenyl]piperidin-1-yl}-1,2-dihydroquinoline-3-carbonitrile]",11
15,"Cn1c(=O)c(C#N)c(N2CCC(c3cccc(C4CC4)c3)CC2)c2ccccc21 [Example 45, 4-[4-(3-cyclopropylphenyl)piperidin-1-yl]-1-methyl-2-oxo-1,2-dihydroquinoline-3-carbonitrile]",2.1
16,"CN(C)c1ccc(C2CCN(c3c(C#N)c(=O)n(C)c4ccccc34)CC2)cc1 [Example 46, 4-{4-[4-(dimethylamino)phenyl]piperidin-1-yl}-1-methyl-2-oxo-1,2-dihydroquinoline-3-carbonitrile]",2.5
17,"CC(C)c1ccc(C2CCN(c3c(C#N)c(=O)n(C)c4ccccc34)CC2)cc1 [Example 47, 1-methyl-2-oxo-4-{4-[4-(propan-2-yl)phenyl]piperidin-1-yl}-1,2-dihydroquinoline-3-carbonitrile]",3
18,"Cn1c(=O)c(C#N)c(N2CCC(c3ccc(OCc4ccccc4)cc3)CC2)c2ccccc21 [Example 48, 4-{4-[4-(benzyloxy)phenyl]piperidin-1-yl}-1-methyl-2-oxo-1,2-dihydroquinoline-3-carbonitrile]",3

row,SMILES,IC50 [nM]
1,"Cn1ccc2cc(C3CCN(c4c(C#N)c(=O)n(C)c5ccccc45)CC3)ccc21 [Example 50, 1-methyl-4-[4-(1-methyl-1H-indol-5-yl)piperidin-1-yl]-2-oxo-1,2-dihydroquinoline-3-carbonitrile]",8.3
2,"Cc1cc(F)cc(C2CCN(c3c(C#N)c(=O)n(C)c4ccccc34)CC2)c1 [Example 51, 4-[4-(3-fluoro-5-methylphenyl)piperidin-1-yl]-1-methyl-2-oxo-1,2-dihydroquinoline-3-carbonitrile]",8.3
3,"COc1ccccc1C1CCN(c2c(C#N)c(=O)n(C)c3ccccc23)CC1 [Example 52, 4-[4-(2-methoxyphenyl)piperidin-1-yl]-1-methyl-2-oxo-1,2-dihydroquinoline-3-carbonitrile]",8.8
4,"Cn1c(=O)c(C#N)c(N2CCC(c3ccc(-c4ccccc4)cc3)CC2)c2ccccc21 [Example 53, 4-[4-([1,1′-biphenyl]-4-yl)piperidin-1-yl]-1-methyl-2-oxo-1,2-dihydroquinoline-3-carbonitrile]",13
5,"Cn1c(=O)c(C#N)c(N2CCC(c3ccc(Cl)cc3)CC2)c2ccccc21 [Example 54, 4-[4-(4-chlorophenyl)piperidin-1-yl]-1-methyl-2-oxo-1,2-dihydroquinoline-3-carbonitrile]",14
6,"COc1cccc(C2CCN(c3c(C#N)c(=O)n(C)c4ccccc34)CC2)c1 [Example 55, 4-[4-(3-methoxyphenyl)piperidin-1-yl]-1-methyl-2-oxo-1,2-dihydroquinoline-3-carbonitrile]",14
7,"Cn1c(=O)c(C#N)c(N2CCC(c3ccc(Oc4ccccc4)cc3)CC2)c2ccccc21 [Example 56, 1-methyl-2-oxo-4-[4-(4-phenoxyphenyl)piperidin-1-yl]-1,2-dihydroquinoline-3-carbonitrile]",17
8,"Cn1c(=O)c(C#N)c(N2CCC(c3ccccc3)CC2)c2ccccc21 [Example 57, 1-methyl-2-oxo-4-(4-phenylpiperidin-1-yl)-1,2-dihydroquinoline-3-carbonitrile]",22
9,"Cn1c(=O)c(C#N)c(N2CCC(C)(c3ccccc3)CC2)c2ccccc21 [Example 58, 1-methyl-4-(4-methyl-4-phenylpipehdin-1-yl)-2-oxo-1,2-dihydroquinoline-3-carbonitrile]",2.6
10,Cn1c(=O)c(C#N)c(N2CCC(c3ccc(N4CCCC4=O)cc3)CC2)c2ccccc21 [Example 59],23
11,"Cn1c(=O)c(C#N)c(N2CCC(c3ccccc3F)CC2)c2ccccc21 [Example 60, 4-[4-(2-fluorophenyl)piperidin-1-yl]-1-methyl-2-oxo-1,2-dihydroquinoline-3-carbonitrile]",33
12,"Cn1c(=O)c(C#N)c(N2CCC(c3ccc(C(F)(F)F)cc3)CC2)c2ccccc21 [Example 61, 1-methyl-2-oxo-4-{4-[4-(trifluoromethyl)phenyl]piperidin-1-yl}-1,2-dihydroquinoline-3-carbonitrile]",37
13,"Cn1c(=O)c(C#N)c(N2CCC(c3cccc(F)c3)CC2)c2ccccc21 [Example 62, 4-[4-(3-fluorophenyl)piperidin-1-yl]-1-methyl-2-oxo-1,2-dihydroquinoline-3-carbonitrile]",38
14,Cn1c(=O)c(C#N)c(N2CCC(c3cccc(N4CCOCC4)c3)CC2)c2ccccc21 [Example 63],39
15,"Cc1c(C#N)cccc1C1CCN(c2c(C#N)c(=O)n(C)c3ccccc23)CC1 [Example 64, 4-[4-(3-cyano-2-methylphenyl)piperidin-1-yl]-1-methyl-2-oxo-1,2-dihydroquinoline-3-carbonitrile]",73
16,"Cn1c(=O)c(C#N)c(N2CCC(c3ccc(S(C)(=O)=O)cc3)CC2)c2ccccc21 [Example 65, 4-{4-[4-(methanesulfonyl)phenyl]piperidin-1-yl}-1-methyl-2-oxo-1,2-dihydroquinoline-3-carbonitrile]",74
17,CN1CCN(c2ccc(C3CCN(c4c(C#N)c(=O)n(C)c5ccccc45)CC3)cc2)C(=O)C1 [Example 66],78
